# Several values for one entry are separate records, joined by “and”; a condition that tells them apart may be missing. Equal entries are not always repeated. Toxic doses and inconclusive results are not listed.
# System: CD2F1 mice, L1210 leukemia ip, survival T/C
# Test: NCI In Vivo Anticancer Drug Screen. Data for tumor model L1210 Leukemia (intraperitoneal) in CD2F1 (CDF1) mice
# Conditions: higher = longer survival
# How it was run: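 Implant tumor; dose compound or vehicle; measure endpoint in both groups; report treated divided by control.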
# [1] = endpoint: mean survival time, dose: 6.25 mg/kg/injection, schedule: Q01DX009 (ip), vehicle: saline with Tween-80
# [2] = endpoint: mean survival time, dose: 100.0 mg/kg/injection, schedule: Q01DX001 (ip), vehicle: saline with Tween-80
# [3] = endpoint: mean survival time, dose: 50.0 mg/kg/injection, schedule: Q01DX009 (ip), vehicle: saline with Tween-80
# [4] = endpoint: mean survival time, dose: 100.0 mg/kg/injection, schedule: Q01DX009 (ip), vehicle: saline with Tween-80
# [5] = endpoint: mean survival time, dose: 200.0 mg/kg/injection, schedule: Q01DX009 (ip), vehicle: saline with Tween-80
# [6] = endpoint: mean survival time, dose: 100.0 mg/kg/injection, schedule: Q04DX003 (ip), vehicle: saline with Tween-80
# [7] = endpoint: mean survival time, dose: 200.0 mg/kg/injection, schedule: Q04DX003 (ip), vehicle: saline with Tween-80
# [8] = endpoint: mean survival time, dose: 400.0 mg/kg/injection, schedule: Q04DX003 (ip), vehicle: saline with Tween-80
# [9] = endpoint: mean survival time, dose: 400.0 mg/kg/injection, schedule: Q01DX009 (ip), vehicle: saline with Tween-80
smiles,measurement,setting,value
C=COCC(C)C (tested in a mixture with another compound),T/C,"endpoint: mean survival time, dose: 0.78 mg/kg/injection, schedule: Q01DX009 (ip), vehicle: Klucel (hydroxypropylcellulose) (HPC)",93 % of control
same,T/C,"endpoint: mean survival time, dose: 1.56 mg/kg/injection, schedule: Q01DX009 (ip), vehicle: Klucel (hydroxypropylcellulose) (HPC)",90 % of control
same,T/C,"endpoint: mean survival time, dose: 1.56 mg/kg/injection, schedule: Q01DX009 (ip), vehicle: saline with Tween-80",86 % of control
same,T/C,"endpoint: mean survival time, dose: 1.56 mg/kg/injection, schedule: Q04DX003 (ip), vehicle: other",109 % of control
same,T/C,"endpoint: mean survival time, dose: 3.12 mg/kg/injection, schedule: Q01DX009 (ip), vehicle: Klucel (hydroxypropylcellulose) (HPC)",88 % of control
same,T/C,"endpoint: mean survival time, dose: 3.12 mg/kg/injection, schedule: Q04DX003 (ip), vehicle: other",91 % of control
same,T/C,"endpoint: mean survival time, dose: 3.13 mg/kg/injection, schedule: Q01DX009 (ip), vehicle: saline with Tween-80",92 % of control
same,T/C,"endpoint: mean survival time, dose: 4.67 mg/kg/injection, schedule: Q01DX009 (ip), vehicle: Klucel (hydroxypropylcellulose) (HPC)",98 % of control
same,T/C,[1],94 % of control
same,T/C,"endpoint: mean survival time, dose: 7.09 mg/kg/injection, schedule: Q01DX009 (ip), vehicle: Klucel (hydroxypropylcellulose) (HPC)",98 % of control
same,T/C,"endpoint: mean survival time, dose: 10.6 mg/kg/injection, schedule: Q01DX009 (ip), vehicle: Klucel (hydroxypropylcellulose) (HPC)",93 % of control
same,T/C,"endpoint: mean survival time, dose: 12.5 mg/kg/injection, schedule: Q04DX003 (ip), vehicle: saline with Tween-80",87 % of control
same,T/C,"endpoint: mean survival time, dose: 15.8 mg/kg/injection, schedule: Q01DX009 (ip), vehicle: alcohol",96 % of control
same,T/C,"endpoint: mean survival time, dose: 18.8 mg/kg/injection, schedule: Q01DX009 (ip), vehicle: saline",111 % of control
same,T/C,"endpoint: mean survival time, dose: 24.0 mg/kg/injection, schedule: Q01DX009 (ip), vehicle: alcohol",88 % of control
same,T/C,"endpoint: mean survival time, dose: 35.0 mg/kg/injection, schedule: Q01DX009 (ip), vehicle: alcohol",97 % of control
same,T/C,"endpoint: mean survival time, dose: 37.5 mg/kg/injection, schedule: Q01DX009 (ip), vehicle: saline",111 % of control
same,T/C,[2],113 % of control
same,T/C,"endpoint: mean survival time, dose: 200.0 mg/kg/injection, schedule: Q01DX001 (ip), vehicle: saline with Tween-80",109 % of control
same,T/C,"endpoint: mean survival time, dose: 400.0 mg/kg/injection, schedule: Q01DX001 (ip), vehicle: saline with Tween-80",95 % of control
c1ccc2ncccc2c1,T/C,"endpoint: mean survival time, dose: 100.0 mg/kg/injection, schedule: Q01DX009 (ip), vehicle: other",103 % of control
same,T/C,"endpoint: mean survival time, dose: 200.0 mg/kg/injection, schedule: Q01DX009 (ip), vehicle: other",101 % of control
C=CC1CC2CC(C1C)C2(C)C (stereo unspecified),T/C,[3],96 % of control
same,T/C,[4],100 % of control
same,T/C,[5],104 % of control
O=S(=O)(O)c1cc(N=Nc2cccc3ccccc23)c(O)c2ncccc12,T/C,[6],104 % of control
same,T/C,[7],97 % of control
same,T/C,[8],106 % of control
O=C1Cc2c([nH]c(=S)[nH]c2=O)N1,T/C,"endpoint: median survival time, dose: 50.0 mg/kg/injection, schedule: Q01DX005 (ip), vehicle: saline",94 % of control
same,T/C,"endpoint: median survival time, dose: 100.0 mg/kg/injection, schedule: Q01DX005 (ip), vehicle: saline",102 % of control
same,T/C,"endpoint: median survival time, dose: 200.0 mg/kg/injection, schedule: Q01DX005 (ip), vehicle: saline",101 % of control
NC(C=O)C(O)C(O)C(O)CO (stereo unspecified),T/C,"endpoint: mean survival time, dose: 100.0 mg/kg/injection, schedule: Q04DX002 (ip), vehicle: saline",97 % of control
same,T/C,"endpoint: mean survival time, dose: 200.0 mg/kg/injection, schedule: Q04DX002 (ip), vehicle: saline",97 % of control
same,T/C,"endpoint: mean survival time, dose: 400.0 mg/kg/injection, schedule: Q04DX002 (ip), vehicle: saline",97 % of control
Cc1[nH]c(=O)[nH]c(=O)c1-n1nnc2ccccc2c1=O,T/C,[6],97 % of control
same,T/C,[7],97 % of control
same,T/C,[8],95 % of control
Cc1c([N+](=O)[O-])cc(C(C)(C)C)c(OC(=S)N(C)C)c1[N+](=O)[O-],T/C,[1],93 % of control
same,T/C,"endpoint: mean survival time, dose: 12.5 mg/kg/injection, schedule: Q01DX009 (ip), vehicle: saline with Tween-80",95 % of control
same,T/C,"endpoint: mean survival time, dose: 25.0 mg/kg/injection, schedule: Q01DX009 (ip), vehicle: saline with Tween-80",89 % of control
CC(C)C(C)(C)OC(=O)c1ccc([N+](=O)[O-])cc1,T/C,"endpoint: mean survival time, dose: 100.0 mg/kg/injection, schedule: Q01DX001 (ip), vehicle: saline",100 % of control
same,T/C,"endpoint: mean survival time, dose: 200.0 mg/kg/injection, schedule: Q01DX001 (ip), vehicle: saline",96 % of control
same,T/C,"endpoint: mean survival time, dose: 400.0 mg/kg/injection, schedule: Q01DX001 (ip), vehicle: saline",98 % of control
N#CC(/C=C/c1ccccc1)Nc1ccccc1N (stereo unspecified),T/C,[4],98 % of control
same,T/C,[5],95 % of control
same,T/C,[9],93 % of control
CCOC(=O)NCCBr,T/C,"endpoint: mean survival time, dose: 37.5 mg/kg/injection, schedule: Q01DX007 (ip), vehicle: saline",88 % of control
same,T/C,"endpoint: mean survival time, dose: 75.0 mg/kg/injection, schedule: Q01DX007 (ip), vehicle: saline",97 % of control
same,T/C,"endpoint: mean survival time, dose: 150.0 mg/kg/injection, schedule: Q01DX007 (ip), vehicle: saline",92 % of control
COC(=O)C(Cc1ccc(N(CCCl)CCCl)cc1)N=NNc1nc[nH]c1C(N)=O (stereo unspecified),T/C,"endpoint: mean survival time, dose: 88.0 mg/kg/injection, schedule: Q01DX001 (ip), vehicle: steriod suspending solution",116 % of control
same,T/C,"endpoint: mean survival time, dose: 133.0 mg/kg/injection, schedule: Q01DX001 (ip), vehicle: steriod suspending solution",115 % of control
same,T/C,"endpoint: mean survival time, dose: 300.0 mg/kg/injection, schedule: Q01DX001 (ip), vehicle: steriod suspending solution",116 % of control
Cc1cc(=S)n(C)c2ccccc12,T/C,[4],94 % of control
same,T/C,[6],93 % of control
same,T/C,[5],93 % of control
same,T/C,[7],96 % of control
same,T/C,[9],98 % of control
same,T/C,[8],88 % of control
CCC[As](=O)(O)CC[As](=O)(O)CCC,T/C,"endpoint: mean survival time, dose: 25.0 mg/kg/injection, schedule: Q01DX001 (ip), vehicle: saline with Tween-80",95 % of control
same,T/C,"endpoint: mean survival time, dose: 50.0 mg/kg/injection, schedule: Q01DX001 (ip), vehicle: saline with Tween-80",95 % of control
same,T/C,[2],103 % of control
CC1(C)OCC(C2OC(C)(C)OC2C2COC(C)(C)O2)O1 (stereo unspecified),T/C,"endpoint: mean survival time, dose: 100.0 mg/kg/injection, schedule: Q04DX002 (ip), vehicle: saline with Tween-80",100 % of control
same,T/C,"endpoint: mean survival time, dose: 200.0 mg/kg/injection, schedule: Q04DX002 (ip), vehicle: saline with Tween-80",94 % of control
same,T/C,"endpoint: mean survival time, dose: 400.0 mg/kg/injection, schedule: Q04DX002 (ip), vehicle: saline with Tween-80",101 % of control
CCCCCCCCCCCCCCCc1nnc(SC)s1,T/C,[3],95 % of control
same,T/C,[4],88 % of control
same,T/C,[6],91 % of control
same,T/C,[7],87 % of control
same,T/C,[8],96 % of control
FC(F)(F)c1[nH]nc(-c2ccc(Cl)cc2)c1N=NN1CCOCC1,T/C,"endpoint: mean survival time, dose: 75.0 mg/kg/injection, schedule: Q01DX001 (ip), vehicle: other",91 % of control
same,T/C,"endpoint: mean survival time, dose: 150.0 mg/kg/injection, schedule: Q01DX001 (ip), vehicle: other",95 % of control
O=C(CCCN1CCN2Cc3[nH]c4ccccc4c3CC2C1)c1ccc(F)cc1 (stereo unspecified),T/C,"endpoint: mean survival time, dose: 25.0 mg/kg/injection, schedule: Q04DX003 (ip), vehicle: saline with Tween-80",101 % of control
same,T/C,"endpoint: mean survival time, dose: 50.0 mg/kg/injection, schedule: Q04DX003 (ip), vehicle: saline with Tween-80",107 % of control
same,T/C,[6],103 % of control
CN(C)C(=O)OC1CCCC1[N+](C)(C)CCCCCCCC[N+](C)(C)C1CCCC1OC(=O)N(C)C (stereo unspecified),T/C,"endpoint: mean survival time, dose: 0.19 mg/kg/injection, schedule: Q01DX009 (ip), vehicle: saline",104 % of control
same,T/C,"endpoint: mean survival time, dose: 0.31 mg/kg/injection, schedule: Q04DX003 (ip), vehicle: saline",100 % of control
same,T/C,"endpoint: mean survival time, dose: 0.39 mg/kg/injection, schedule: Q01DX009 (ip), vehicle: saline",104 % of control
same,T/C,"endpoint: mean survival time, dose: 0.62 mg/kg/injection, schedule: Q04DX003 (ip), vehicle: saline",98 % of control
same,T/C,"endpoint: mean survival time, dose: 0.78 mg/kg/injection, schedule: Q01DX009 (ip), vehicle: saline",98 % of control
O=C(O)CCC(=O)CCC(=O)c1ccccc1,T/C,[3],96 % of control
same,T/C,[4],98 % of control
same,T/C,[6],91 % of control
same,T/C,[5],98 % of control
c1cc(-c2cc3ccc(C4=NCCN4)cc3[nH]2)ccc1C1=NCCN1,T/C,"endpoint: mean survival time, dose: 3.12 mg/kg/injection, schedule: Q01DX009 (ip), vehicle: saline",111 % of control
same,T/C,"endpoint: mean survival time, dose: 3.12 mg/kg/injection, schedule: Q01DX009 (ip), vehicle: suspension in saline",112 % of control
same,T/C,"endpoint: mean survival time, dose: 6.25 mg/kg/injection, schedule: Q01DX009 (ip), vehicle: saline",124 % of control
same,T/C,"endpoint: mean survival time, dose: 6.25 mg/kg/injection, schedule: Q01DX009 (ip), vehicle: suspension in saline",118 % of control
same,T/C,"endpoint: mean survival time, dose: 12.5 mg/kg/injection, schedule: Q01DX009 (ip), vehicle: saline",119 % of control
same,T/C,"endpoint: mean survival time, dose: 12.5 mg/kg/injection, schedule: Q01DX009 (ip), vehicle: suspension in saline",283 % of control
same,T/C,"endpoint: mean survival time, dose: 25.0 mg/kg/injection, schedule: Q01DX009 (ip), vehicle: suspension in saline",295 % of control and 336 % of control and 337 % of control
same,T/C,"endpoint: mean survival time, dose: 50.0 mg/kg/injection, schedule: Q01DX009 (ip), vehicle: saline",88 % of control

# Source: PubChem BioAssay AID256 (DTP/NCI, 2004)
